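How tested: cells in 96-well plates exposed to compound for 48 hours at five concentrations. At the GI50, growth is halved. TGI is the concentration that stops growth completely.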
What was measured:
Assay in all cases: growth of human tumour cells (NCI), 48 h
[1] = tested on: OVCAR-4 ovarian
[2] = tested on: SR leukemia
[3] = tested on: HOP-92 NSCLC
[4] = tested on: MDA-MB-435
[5] = tested on: CCRF-CEM leukemia
[6] = tested on: NCI-H460 lung
[7] = tested on: LOX IMVI melanoma
[8] = tested on: DU-145 prostate
[9] = tested on: ACHN renal
[10] = tested on: MALME-3M melanoma
[11] = tested on: HT29 colon
[12] = tested on: OVCAR-3 ovarian
[13] = tested on: UACC-257 melanoma
[14] = tested on: IGROV1 ovarian
[15] = tested on: BT-549 breast
[16] = tested on: SW-620 colon
[17] = tested on: 786-0 renal
[18] = tested on: SN12C renal
[19] = tested on: SK-MEL-28 melanoma
[20] = tested on: NCI-H226 lung
[21] = tested on: U251 CNS
[22] = tested on: EKVX NSCLC
[23] = tested on: NCI-H23 lung
[24] = tested on: NCI-H522 lung
[25] = tested on: SNB-75 CNS
[26] = tested on: HL-60(TB) leukemia
[27] = tested on: SF-268 CNS
[28] = tested on: MCF7 breast
[29] = tested on: RPMI-8226 leukemia
[30] = tested on: KM12 colon
[31] = tested on: HS 578T breast
[32] = tested on: HCT-15 colon
[33] = tested on: M14 melanoma
[34] = tested on: SF-295 CNS
[35] = tested on: HOP-62 NSCLC
[36] = tested on: A549 NSCLC
[37] = tested on: SNB-19 CNS
[38] = tested on: RXF 393 renal
[39] = tested on: TK-10 renal
[40] = tested on: SF-539 CNS
[41] = tested on: SK-MEL-2 melanoma
[42] = tested on: OVCAR-5 ovarian
[43] = tested on: UO-31 renal
[44] = tested on: PC-3 prostate
[45] = tested on: OVCAR-8 ovarian
[46] = tested on: SK-OV-3 ovarian
[47] = tested on: HCC-2998 colon
[48] = tested on: NCI/ADR-RES ovarian
[49] = tested on: MDA-MB-231 breast
[50] = tested on: MOLT-4 leukemia
[51] = tested on: HCT-116 colon
[52] = tested on: UACC-62 melanoma
[53] = tested on: A498 renal
[54] = tested on: SK-MEL-5 melanoma
[55] = tested on: COLO 205 colon
[56] = tested on: T-47D breast

O=C(O)c1sccc1O
GI50 [1]: 26.4 µM
TGI [1]: > 100 µM
GI50 [2]: 34.5 µM
TGI [2]: > 100 µM
GI50 [3]: 24.9 µM
TGI [3]: > 100 µM
GI50 [4]: 27.1 µM
TGI [4]: > 100 µM
GI50 [5]: 31.9 µM
TGI [5]: > 100 µM
GI50 [6]: 33.5 µM
TGI [6]: > 100 µM
GI50 [7]: 26.4 µM
TGI [7]: > 100 µM
GI50 [8]: 48 µM
TGI [8]: > 100 µM
GI50 [9]: 28.6 µM
TGI [9]: > 100 µM
GI50 [10]: 83.4 µM
TGI [10]: > 100 µM
GI50 [11]: 57.5 µM
TGI [11]: > 100 µM
GI50 [12]: 32.7 µM
TGI [12]: > 100 µM
GI50 [13]: 47.2 µM
TGI [13]: > 100 µM
GI50 [14]: 21.8 µM
TGI [14]: > 100 µM
GI50 [15]: 21.6 µM
TGI [15]: > 100 µM
GI50 [16]: 31.4 µM
TGI [16]: > 100 µM
GI50 [17]: 60.9 µM
TGI [17]: > 100 µM
GI50 [18]: 32.7 µM
TGI [18]: > 100 µM
GI50 [19]: 32.2 µM
TGI [19]: > 100 µM
GI50 [20]: > 100 µM
TGI [20]: > 100 µM
GI50 [21]: 34.7 µM
TGI [21]: > 100 µM
GI50 [22]: 21.7 µM
TGI [22]: > 100 µM
GI50 [23]: 37.3 µM
TGI [23]: > 100 µM
GI50 [24]: 25.4 µM
TGI [24]: 80.7 µM
GI50 [25]: 15.9 µM
TGI [25]: > 100 µM
GI50 [26]: 33.9 µM
TGI [26]: 90.1 µM
GI50 [27]: 33.2 µM
TGI [27]: > 100 µM
GI50 [28]: 31.5 µM
TGI [28]: > 100 µM
GI50 [29]: 25.2 µM
TGI [29]: > 100 µM
GI50 [30]: 30.6 µM
TGI [30]: > 100 µM
GI50 [31]: 24.9 µM
TGI [31]: > 100 µM
GI50 [32]: 32.1 µM
TGI [32]: > 100 µM
GI50 [33]: 27 µM
TGI [33]: > 100 µM
GI50 [34]: 34.8 µM
TGI [34]: > 100 µM
GI50 [35]: 22.2 µM
TGI [35]: > 100 µM
GI50 [36]: 50.3 µM
TGI [36]: > 100 µM
GI50 [37]: 41.3 µM
TGI [37]: > 100 µM
GI50 [38]: 32 µM
TGI [38]: > 100 µM
GI50 [39]: 89.6 µM
TGI [39]: > 100 µM
GI50 [40]: 28.8 µM
TGI [40]: > 100 µM
GI50 [41]: 35.1 µM
TGI [41]: > 100 µM
GI50 [42]: 76.3 µM
TGI [42]: > 100 µM
GI50 [43]: 15.2 µM
TGI [43]: > 100 µM
GI50 [44]: 24.2 µM
TGI [44]: > 100 µM
GI50 [45]: 47.7 µM
TGI [45]: > 100 µM
GI50 [46]: > 100 µM
TGI [46]: > 100 µM
GI50 [47]: 36.6 µM
TGI [47]: > 100 µM
GI50 [48]: 40.5 µM
TGI [48]: > 100 µM
GI50 [49]: 16.4 µM
TGI [49]: 73.5 µM
GI50 [50]: 34.9 µM
TGI [50]: > 100 µM
GI50 [51]: 31.2 µM
TGI [51]: > 100 µM
GI50 [52]: 17.9 µM
TGI [52]: 52 µM
GI50 [53]: 52.3 µM
TGI [53]: > 100 µM
GI50 [54]: 25.3 µM
TGI [54]: 99.2 µM
GI50 [55]: 60.1 µM
TGI [55]: > 100 µM
GI50 [56]: 33.3 µM
TGI [56]: > 100 µM

From PubChem BioAssay (NCI)
